Data set [1] is described as follows: Cytotoxicity against human A549 cells assessed as cell growth inhibition after 48 hrs by MTT assay. It counts as functional, cell-based. As to conditions: A549, 48 h.
Data set [2] is described as follows: Cytotoxicity against human MCF10A cells assessed as cell growth inhibition after 48 hrs by MTT assay. It counts as toxicity, cell-based, MCF-10A.
For data set [3], the system named is A549. As to the kind of experiment: Inhibition of F-actin polymerization in human A549 cells assessed as disruption of actin fibre assembly after 24 hrs by rhodamine-phalloidin/[…]-dual staining based fluorescent microscopic method. It counts as cell-based.
In data set [4] the test system is A549. Nature of the data set: Induction of morphological changes in human A549 cells assessed as […] at 5 to 15 uM after 24 hrs by phase contrast microscopic method. It counts as functional, cell-based.
Data set [5] can be described thus: Cell cycle arrest in human A549 cells assessed as accumulation at G2/M phase at 10 uM after 24 hrs by propidium iodide staining-based flow cytometry (reference value: 23.3%). It counts as functional.
The nature of data set [6]: Cell cycle arrest in human A549 cells assessed as accumulation at G2/M phase at 15 uM after 24 hrs by propidium iodide staining-based flow cytometry (reference value: 23.3%). It counts as functional.
Data set [7] has as its system A549. As to the kind of experiment: Induction of apoptosis in human A549 cells assessed as necrotic cells at 5 uM after 24 hrs by Annexin V-FITC/propidium iodide staining based flow cytometry (reference value: 2.3%). It counts as functional.
The nature of data set [8]: Antimigratory activity in human A549 cells assessed as cell migration at 15 uM after 24 hrs by phase contrast microscopy-based wound healing assay relative to control. It counts as functional.
Data set [9] is described as follows: Cell cycle arrest in human A549 cells assessed as accumulation at S phase at 5 uM after 24 hrs by propidium iodide staining-based flow cytometry (reference value: 11.5%). It counts as functional.
Data set [10] can be described thus: Cell cycle arrest in human A549 cells assessed as accumulation at S phase at 10 uM after 24 hrs by propidium iodide staining-based flow cytometry (reference value: 11.5%). It counts as functional.
The test system of data set [11] is A549. As to the kind of experiment: Induction of apoptosis in human A549 cells assessed as pyknosis at 5 to 15 uM after 24 hrs by DAPI staining based fluorescence microscopic method. It counts as functional, cell-based.
The subject of data set [12] is A549. As to the kind of experiment: Induction of apoptosis in human A549 cells assessed as viable cells at 10 uM after 24 hrs by Annexin V-FITC/propidium iodide staining based flow cytometry (reference value: 94%). As to conditions: A549, 24 h, read-out: Activity. It counts as functional.
In data set [13] the test system is A549. Nature of the data set: Induction of apoptosis in human A549 cells assessed as necrotic cells at 15 uM after 24 hrs by Annexin V-FITC/propidium iodide staining based flow cytometry (reference value: 2.3%). It counts as functional.

Molecules are shown by their SMILES. Activity calls are given as the source filed them. No cut-off for these calls is given here.

As for `Cn1c(/C=C2\SC(=O)N(CC(=O)Nc3nc(-c4ccccc4)cs3)C2=O)nc2ccccc21`, the IC50 in [1] is 11.5 µM. Further, the IC50 at 48 h in data set [2] is greater than 100 µM. Moreover, the inhibition result in the data set on A549 [3] is “Dose-dependent effect”. Further, the result in the data set on A549 [4] and in the data set with A549 [11] was Active. For the same compound, the Activity amounted to 49.3% in [5]; 57.8% in data set [6]; 0.6% in the data set with A549 [7]; 60.4% in [8]; 11.4% in data set [9]; 7.9% in data set [10]. Besides, in the data set with A549 [13], the Activity worked out at 2.5%. The viability at 10 µM in the data set with A549 [12] came to 73.3%.

(Values after ChEMBL document CHEMBL3875162, “Synthesis and biological evaluation of new benzimidazole-thiazolidinedione hybrids as potential cytotoxic and apoptosis inducing agents” (Eur J Med Chem, 2016).)
